# Measurements taken from EP4667476A1, “NOVEL MITOCHONDRIA-TARGETING COMPOUNDS” (THE CATHOLIC UNIVERSITY OF KOREA INDUSTRY-ACADEMIC …, priority 2023, dated 2024).
# Tested on: PD-L1
# Experiment: PD-L1 expression in gastric cancer cells by flow cytometer
# Format: cell-based
# Conditions: AGS; metformin at a concentration 50 times higher than that of JH-001 (FIG. 8)
# Protocol: After treating an AGS cell line, a gastric cancer cell line, with JH-001 for each concentration, the expression of PD-L1, an immunocompromised marker, was confirmed using a flow cytometer. […] In addition, metformin, known as a mitochondria-targeting drug, was treated at a concentration 50 times higher than that of JH-001 and the expression level of PD-L1 was confirmed. As a result, it was confirmed that JH-001 according to the present disclosure inhibited PD-L1 expression about 2 times higher than metformin treatment, even though JH-001 was treated at a much lower concentration (FIG. 8).
structure (smiles),measurement,value
"CN(CCCNC(=O)CCCCC[P+](c1ccccc1)(c1ccccc1)c1ccccc1)C(=N)NC(=N)N [JH-001, (6-((3-(3-carbamimidoyl-1-methylguanidino)propyl)amino)-6-oxohexyl)triphenylphosphonium]",inhibition of PD-L1 expression relative to metformin treatment,about 2 times
